pIC50: −log10 of the molar value.

The target of data set [1] is MDM2 (Homo sapiens (Human), UniProt Q00987). The data set is described as follows: In vitro MDM2 HTRF assay (inhibition of p53-MDM2 interaction). Format: binding. To be noted: GST-MDM2 / biotinylated p53 peptide. Background: In TR-FRET formats the signal depends on donor and acceptor labels being close together.
The test system of data set [2] is BCL-2-dependent acute lymphoblastic leukemia (ALL) cell line RS4;11 overexpressing Bcl-2 G101V. The data set is described as follows: cells. Format: cell-based. To be noted: Homo sapiens, RS4-11; about 72 hours, ATPlite luminescence; read-out: RS4;11-G101V IC50. In short, it runs like this: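 About 1×10^4 cells per well treated with compound for about 72 hours in medium with 5% FBS or 10% normal human serum. Viability from ATP-based luminescence (ATPlite) after lysis; IC50 derived from dose range.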

A short description of data set [3]: Mice PK study. To be noted: 25 mg/kg; Oral, 25 mpk, CD-1 mouse, plasma. It is filed as in vivo. On the procedure:
Biological Example 4: Mice PK Study
The pharmacokinetics of compounds were evaluated in CD-1 mouse via Intravenous and Oral Administration. The IV dose was administered as a slow bolus in the Jugular vein, and oral doses were administered by gavage. The formulation for IV dosing was 5% DMSO in 20% HPBCD in water, and the PO formulation was 2.5% DMSO, 10% EtOH, 20% Cremphor EL, 67.5% D5W. The PK time point for the IV arm was 5, 15, 30 min, 1, 2, 4, 6, 8, 12, 24 hours post dose, and for PO arm was 15, 30 min, 1, 2, 4, 6, 8, 12, 24 hours post dose. Approximately 0.03 mL blood was collected at each time point. Blood of each sample was transferred into plastic micro centrifuge tubes containing EDTA-K2 and collect plasma within 15 min by centrifugation at 4000 g for 5 minutes in a 4° C. centrifuge. Plasma samples were stored in polypropylene tubes. The samples were stored in a freezer at −75±15° C. prior to analysis. Concentrations of compounds in the plasma samples were analyzed using a LC-MS/MS method. […] The following pharmacokinetic parameters were calculated, whenever possible from the plasma concentration versus time data: IV administration: C0, CL, Vd, T1/2, AUCinf, AUClast, MRT, Number of Points for Regression; PO administration: Cmax, Tmax, T1/2, AUCinf, AUClast, F %, Number of Points for Regression. […]

Sequence of MDM2 (Q00987 whole entry): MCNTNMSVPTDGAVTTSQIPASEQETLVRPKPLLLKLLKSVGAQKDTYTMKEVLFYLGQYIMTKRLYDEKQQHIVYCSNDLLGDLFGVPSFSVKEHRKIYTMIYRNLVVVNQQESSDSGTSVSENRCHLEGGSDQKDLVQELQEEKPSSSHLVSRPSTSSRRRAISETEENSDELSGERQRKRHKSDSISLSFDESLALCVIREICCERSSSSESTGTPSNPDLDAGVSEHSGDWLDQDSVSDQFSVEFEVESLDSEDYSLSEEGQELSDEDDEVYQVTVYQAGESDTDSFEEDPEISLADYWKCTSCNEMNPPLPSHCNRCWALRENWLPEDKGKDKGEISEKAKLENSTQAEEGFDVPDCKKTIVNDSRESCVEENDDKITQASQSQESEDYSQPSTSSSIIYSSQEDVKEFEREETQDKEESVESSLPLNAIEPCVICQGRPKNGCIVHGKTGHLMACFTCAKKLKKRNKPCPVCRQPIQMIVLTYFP

On to `COc1cc(C(=O)N2CCCC[C@H]2CCC#Cc2cccc3c2CN([C@@H]2CCC(=O)NC2=O)C3=O)ccc1NC(=O)[C@@H]1N[C@@H](CC(C)(C)C)[C@@]2(CNc3cc(Cl)ccc32)[C@H]1c1cccc(Cl)c1F` [Example 38, (2′S,3S,4′S,5′R)-6-chloro-4′-(3-chloro-2-fluorophenyl)-2′-(2,2-dimethylpropyl)-N-{4-[(2S)-2-(4-{2-[(3R)-2,6-dioxopiperidin-3-yl]-1-oxo-3H-isoindol-4-yl}but-3-yn-1-yl)piperidine-1-carbonyl]-2-methoxyphenyl}-1,2-dihydrospiro[indole-3,3′-pyrrolidine]-5′-carboxamide], for which the figures for the pIC50 in data set [1] and in data set [2] were 8.42 and 7.17, respectively.

`COc1cc(C(=O)N2CCCC[C@H]2CCC#Cc2cccc3c2CN([C@H]2CCC(=O)NC2=O)C3=O)ccc1NC(=O)[C@@H]1N[C@@H](CC(C)(C)C)[C@@]2(CNc3cc(Cl)ccc32)[C@H]1c1cccc(Cl)c1F` [Example 39, (2′S,3S,4′S,5′R)-6-chloro-4′-(3-chloro-2-fluorophenyl)-2′-(2,2-dimethylpropyl)-N-{4-[(2S)-2-(4-{2-[(3S)-2,6-dioxopiperidin-3-yl]-1-oxo-3H-isoindol-4-yl}but-3-yn-1-yl)piperidine-1-carbonyl]-2-methoxyphenyl}-1,2-dihydrospiro[indole-3,3′-pyrrolidine]-5′-carboxamide]: the pIC50 is 8.57 in data set [1] and 6.90 in data set [2].

For `COc1cc(C(=O)N2CCC3(CC2)CC(C#Cc2cccc4c2CN(C2CCC(=O)NC2=O)C4=O)C3)ccc1NC(=O)[C@@H]1N[C@@H](CC(C)(C)C)[C@@]2(CNc3cc(Cl)ccc32)[C@H]1c1cccc(Cl)c1F` (stereo partly drawn) [Example 42, (2′S,3S,4′S,5′R)-6-chloro-4′-(3-chloro-2-fluorophenyl)-N-(4-(2-((2-(2,6-dioxopiperidin-3-yl)-1-oxoisoindolin-4-yl)ethynyl)-7-azaspiro[3.5]nonane-7-carbonyl)-2-methoxyphenyl)-2′-neopentylspiro[indoline-3,3′-pyrrolidine]-5′-carboxamide], the pIC50 in data set [1] is 8.35; in data set [2], 7.00.

Take `COc1cc(C(=O)N2CCC3(CC2)C[C@H]3C#Cc2cccc3c2CN(C2CCC(=O)NC2=O)C3=O)ccc1NC(=O)[C@@H]1N[C@@H](CC(C)(C)C)[C@@]2(CNc3cc(Cl)ccc32)[C@H]1c1cccc(Cl)c1F` (stereo partly drawn) [Example 43, (2′S,3S,4′S,5′R)-6-chloro-4′-(3-chloro-2-fluorophenyl)-2′-(2,2-dimethylpropyl)-N-{4-[(1R)-1-{2-[2-(2,6-dioxopiperidin-3-yl)-1-oxo-3H-isoindol-4-yl]ethynyl}-6-azaspiro[2.5]octane-6-carbonyl]-2-methoxyphenyl}-1,2-dihydrospiro[indole-3,3′-pyrrolidine]-5′-carboxamide]: the pIC50 was 8.33 in data set [1] and 7.55 in data set [2].

Consider `COc1cc(C(=O)N2CCC3(CC2)C[C@@H]3C#Cc2cccc3c2CN(C2CCC(=O)NC2=O)C3=O)ccc1NC(=O)[C@@H]1N[C@@H](CC(C)(C)C)[C@@]2(CNc3cc(Cl)ccc32)[C@H]1c1cccc(Cl)c1F` (stereo partly drawn) [Example 44, (2′S,3S,4′S,5′R)-6-chloro-4′-(3-chloro-2-fluorophenyl)-2′-(2,2-dimethylpropyl)-N-{4-[(1S)-1-{2-[2-(2,6-dioxopiperidin-3-yl)-1-oxo-3H-isoindol-4-yl]ethynyl}-6-azaspiro[2.5]octane-6-carbonyl]-2-methoxyphenyl}-1,2-dihydrospiro[indole-3,3′-pyrrolidine]-5′-carboxamide], for which the pIC50 was 8.74 in data set [1] and 7.88 in data set [2].

On to `COc1cc(C(=O)N2CC[C@H](C#Cc3cccc4c3CN(C3CCC(=O)NC3=O)C4=O)C2)ccc1NC(=O)[C@@H]1N[C@@H](CC(C)(C)C)[C@@]2(CNc3cc(Cl)ccc32)[C@H]1c1cccc(Cl)c1F` (stereo partly drawn) [Example 48, (2′S,3S,4′S,5′R)-6-chloro-4′-(3-chloro-2-fluorophenyl)-2′-(2,2-dimethylpropyl)-N-{4-[(3R)-3-{2-[2-(2,6-dioxopiperidin-3-yl)-1-oxo-3H-isoindol-4-yl]ethynyl}pyrrolidine-1-carbonyl]-2-methoxyphenyl}-1,2-dihydrospiro[indole-3,3′-pyrrolidine]-5′-carboxamide], for which the figures for the pIC50 in data set [1] and in data set [2] were 8.92 and 7.91, respectively.

Take `COc1cc(C(=O)N2CC[C@@H](C#Cc3cccc4c3CN(C3CCC(=O)NC3=O)C4=O)C2)ccc1NC(=O)[C@@H]1N[C@@H](CC(C)(C)C)[C@@]2(CNc3cc(Cl)ccc32)[C@H]1c1cccc(Cl)c1F` (stereo partly drawn) [Example 49, (2′S,3S,4′S,5′R)-6-chloro-4′-(3-chloro-2-fluorophenyl)-2′-(2,2-dimethylpropyl)-N-{4-[(3S)-3-{2-[2-(2,6-dioxopiperidin-3-yl)-1-oxo-3H-isoindol-4-yl]ethynyl}pyrrolidine-1-carbonyl]-2-methoxyphenyl}-1,2-dihydrospiro[indole-3,3′-pyrrolidine]-5′-carboxamide]: the pIC50 was 8.98 in data set [1] and 7.85 in data set [2].

As to `COc1cc(C(=O)N[C@@H]2CCCN(CC#Cc3cccc4c3CN(C3CCC(=O)NC3=O)C4=O)C2)ccc1NC(=O)[C@@H]1N[C@@H](CC(C)(C)C)[C@@]2(CNc3cc(Cl)ccc32)[C@H]1c1cccc(Cl)c1F` (stereo partly drawn) [Example 50, (2′S,3S,4′S,5′R)-6-chloro-4′-(3-chloro-2-fluorophenyl)-2′-(2,2-dimethylpropyl)-N-(4-{[(3R)-1-{3-[2-(2,6-dioxopiperidin-3-yl)-1-oxo-3H-isoindol-4-yl]prop-2-yn-1-yl}piperidin-3-yl]carbamoyl}-2-methoxyphenyl)-1,2-dihydrospiro[indole-3,3′-pyrrolidine]-5′-carboxamide], the values for the pIC50 in data set [1] and in data set [2] were 8.80 and 7.63, respectively.

For `COc1cc(C(=O)N2CCN(CC#Cc3cccc4c3CN(C3CCC(=O)NC3=O)C4=O)CC2)ccc1NC(=O)[C@@H]1N[C@@H](CC(C)(C)C)[C@@]2(CNc3cc(Cl)ccc32)[C@H]1c1cccc(Cl)c1F` (stereo partly drawn) [Example 51, (2′S,3S,4′S,5′R)-6-chloro-4′-(3-chloro-2-fluorophenyl)-2′-(2,2-dimethylpropyl)-N-[4-(4-{3-[2-(2,6-dioxopiperidin-3-yl)-1-oxo-3H-isoindol-4-yl]prop-2-yn-1-yl}piperazine-1-carbonyl)-2-methoxyphenyl]-1,2-dihydrospiro[indole-3,3′-pyrrolidine]-5′-carboxamide], the figures for the pIC50 in data set [1] and in data set [2] were 8.85 and 7.74, respectively.

In the case of `COc1cc(C(=O)N2CCC3(CC2)C[C@@H]3C#Cc2cccc3c2CN([C@H]2CCC(=O)NC2=O)C3=O)ccc1NC(=O)[C@@H]1N[C@@H](CC(C)(C)C)[C@@]2(CNc3cc(C(F)(F)F)ncc32)[C@H]1c1cccc(Cl)c1F` [Example 56, (2S,3S,4S,5R)-4-(3-chloro-2-fluorophenyl)-N-(4-((S)-1-((2-((S)-2,6-dioxopiperidin-3-yl)-1-oxoisoindolin-4-yl)ethynyl)-6-azaspiro[2.5]octane-6-carbonyl)-2-methoxyphenyl)-2-neopentyl-6′-(trifluoromethyl)-1′,2′-dihydrospiro[pyrrolidine-3,3′-pyrrolo[3,2-c]pyridine]-5-carboxamide], the values for the pIC50 in data set [1] and in data set [2] were 7.63 and 8.96, respectively.

Usually AUC stands for the area under the concentration-time curve, a measure of exposure. Consider `COc1cc(C(=O)N2CCC3(CC2)C[C@@H]3C#Cc2cccc3c2CN([C@H]2CCC(=O)NC2=O)C3=O)ccc1NC(=O)[C@@H]1N[C@@H](CC(C)(C)C)[C@@]2(CNc3cc(Cl)ccc32)[C@H]1c1cccc(Cl)c1F` [Example 58, (2′S,3S,4′S,5′R)-6-chloro-4′-(3-chloro-2-fluorophenyl)-2′-(2,2-dimethylpropyl)-N-{4-[(1S)-1-(2-{2-[(3S)-2,6-dioxopiperidin-3-yl]-1-oxo-3H-isoindol-4-yl}ethynyl)-6-azaspiro[2.5]octane-6-carbonyl]-2-methoxyphenyl}-1,2-dihydrospiro[indole-3,3′-pyrrolidine]-5′-carboxamide], for which the values for the pIC50 in data set [1] and in data set [2] were 8.47 and 8.11, respectively. For the same compound, the exposure (AUC) in data set [3] came to 49400 ng·h/mL.

(Values after patent US20250073340A1, “SPIROCYCLIC MDM2 MODULATOR AND USES THEREOF” (Newave Pharmaceutical Inc., priority 2021, published 2025).)
